In brackets after ≈: the same amount, converted by molar mass. Like-named read-outs stand apart in the source and are kept apart here.
Columns and labels:
[1] = target: T1, FBD35 (PfFKBP35 binding domain) (Plasmodium falciparum, UniProt Q8I4V8); assay: Fluorescence polarization competition, FBD35
T1 construct: FKBP35 Q5 -A128; 6His-SUMO (N, cleaved yes); made in house; host or cells: E. coli BL21 DE3

FKBP12 [2] = target: T2, FKBP12 (Homo sapiens, UniProt P62942); assay: Differential scanning calorimetry, FKBP12; type: binding; conditions: compound 40 µM
T2 construct: 6His-SUMO (N, cleaved yes); made in house; host or cells: E. coli (identical protocol to FBD35, BL21 DE3)
T2 sequence (P62942 whole entry): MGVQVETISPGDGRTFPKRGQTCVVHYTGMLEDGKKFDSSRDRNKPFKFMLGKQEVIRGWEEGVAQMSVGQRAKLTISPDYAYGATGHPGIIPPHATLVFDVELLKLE

[3] = target: T3, nLuc-tagged full length PfFKBP35 (Plasmodium falciparum, UniProt Q8I4V8); assay: NanoBRET cellular target engagement, nLuc-FKBP35; type: cell-based
T3 construct: nanoluciferase-tagged (nLuc) full length PfFKBP35 or nLuc-tagged FKBP12; expressed in transfected cells
T3 sequence (Q8I4V8 whole entry): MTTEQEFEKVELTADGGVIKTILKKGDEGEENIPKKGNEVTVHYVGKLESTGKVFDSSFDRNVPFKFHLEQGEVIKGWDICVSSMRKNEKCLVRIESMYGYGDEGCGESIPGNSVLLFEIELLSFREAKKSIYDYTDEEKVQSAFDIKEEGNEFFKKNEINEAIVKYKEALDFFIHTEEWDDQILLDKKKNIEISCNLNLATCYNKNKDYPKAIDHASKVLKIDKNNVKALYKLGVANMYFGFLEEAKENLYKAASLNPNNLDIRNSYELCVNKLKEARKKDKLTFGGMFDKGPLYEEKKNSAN

nLuc-tagged FKBP12 = target: T4, nLuc-tagged FKBP12 (Homo sapiens, UniProt P62942); assay: NanoBRET cellular target engagement, nLuc-FKBP12; type: cell-based
T4 construct: full length Plasmodium falciparum FKBP35 and human FKBP12 DNA were; expressed in transfected cells
T4 sequence (P62942 whole entry): as the sequence (P62942 whole entry) above

[4] = target: T1, FBD35 (PfFKBP35 binding domain); assay: Differential scanning calorimetry, FBD35; conditions: read-out: FBD35 ΔTM
FKBP12 [5] = target: T2, FKBP12; assay: Fluorescence polarization competition, FKBP12; type: binding
PBS solubility = conditions: pH 7.4
FKBP35 = target: T5, FKBP35 (Plasmodium falciparum, UniProt Q8I4V8); assay: Time course of covalent modification by LC-MS; type: biochemical
T5 construct: FKBP35 Q5 -A128; 6His-SUMO (N, cleaved yes); made in house; host or cells: E. coli BL21 DE3
T5 sequence (Q8I4V8 5-128): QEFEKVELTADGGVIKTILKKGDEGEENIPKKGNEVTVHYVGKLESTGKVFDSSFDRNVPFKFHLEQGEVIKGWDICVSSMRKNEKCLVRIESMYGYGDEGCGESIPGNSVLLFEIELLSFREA
Description: RT=5.2). B. Overlay of mass determinations from LC traces in (A). FBD35 only (black, m/z = […]
chromatogram corresponding to Figure 4c detecting the CAM -peptide […] at […]
m/z 855.8668. D. Mass spec chromatogram corresponding to Figure 4d detecting the CAM - […]
peptide […] at m/z 855.8670. E. Mass spec chromatogram corresponding to Figure 4e which was unable to detect the mass of the 1c-inclusion peptide. F. Mass spec chromatogram corresponding to Figure 4f detecting the 1c-inclusion peptide […]
Figure S2. Time course of covalent modification. In order to compare rates of covalent modification, compounds 1a-c, 2a, and 2c were incubated with FKBP35 in a 5:1 ratio (2250 nM inhibitor : 450 nM FKBP35) and FKBP35 consumption or modification determined by LC -MS. A.
The concentration of residual FKBP35 as a function of time. Data was fit to an exponential “one phase decay” model which was used to calculate the rate (K) and half -life (t1/2) of the reaction.
The loss of FKBP35 in the DMSO and 1b controls is likely due to adsorption onto the vial. B.
Concentration of covalent adduct as a function of time. Data was fit to an “exponential plateau” regression model, which was used to calculate the rate of formation (K’). Compound 1b, which […]
C. Tabulated rates calculated from the regressions in A and B. The rates of FKBP35 consumption correlate strongly with the rates of […]
(also on this page, place not known: -inclusion 1c 0 20 40 60 0 200 400 600 Time (hours) FKBP35 (nM) Consumption of FKBP35 1a 1b 1c 2a 2c DMSO 0 20 40 60 0 200 400 600 Time (hours) Covalent Adduct (nM) Formation of Covalent Adduct 1a 1b 1c 2a 2c A B) […]
(1 picture or pasted object on this page, not shown here)
Experiments were performed using 0.4 mg/mL concentration of wild -type or mutant protein (6 - 9 uM), with and without synthes ized compounds at 40 µM and 2% DMSO (V/V). The respective reference scans were run under identical DSC conditions and subtracted from each sample scan.
The program was run in a continuous acquisition mode from 25°C to 90°C at a rate of 120C/h The heat capacity curves and midpoint temperature (Tm) were analyzed using Origin 7.0 software.
Fluorescence Polarization
The fluorescent tracer SLFb-2PEG-TAMRA was diluted in DMSO to 100 nM (100x stock concentration). FKBP proteins were diluted in assay buffer (150 mM NaCl, 20 mM HEPES pH 7.5, 0.002% Triton X -100) to the indicated concentration. 100x DMSO tracer stock was added to the protein buffer solution to a 1X final concentration and 20 µL of the mixture was aliquoted into each well of a black 384 -well assay plate (No. 3820, Corning Life Sciences). The plate was briefly centrifuged to remove bubbles. Using a d300e digital dispenser (Tecan), competitive ligands (10 mM stock in DMSO) were aliquoted in triplicate in an 8 -point 3x dilution series (30 µM to 13.7 nM final concentra tion) and normalized to 2% total DMSO concentration. Following incubation at room temperature (RT) for one hour, fluorescence polarization was measured using an EnVision Multimode Plate Reader (PerkinElmer) with the TAMRA Dual -FP mirror and filter kit. […]
analyzed in GraphPad Prism 8 by fitting the data to the “One Site – Fit Ki” model to obtain the […]
Time Course Analysis of Covalent Inhibition
The following analy sis was performed as described on two different days, yielding similar results.
One replicate is shown for clarity. In 1.5 mL snap -top tubes, ligands 1a, 1b, 1c, 2a, and 2c were each diluted to 450 μM in DMSO to produce 200x stock solutions. In a separate 1.5 mL snap-top tube, isolated FKBP35 protein was diluted to 90 μM in the reaction buffer (150 mM NaCl, 20 mM HEPES pH = 7.5) to produce a 200x stock solution. In 2 mL glass mass spec vials, 5 μL of each 200x ligand solution was diluted in 990 μL reaction buffer. Immediately prior to injection of each t=0 time point, 5 μL of the 200x protein solution was added to the mass spec vial and mixed. Samples were analyzed using the Waters BioAccord LC-ToF (composed of an ACQUITY I -Class UPLC and […]

[6] = test system: NF54 P. falciparum parasites; assay: P. falciparum strain NF54 growth-inhibition assay; type: cell-based; conditions: Plasmodium falciparum; luciferase reporter NF54 line, 72 h
Experimental: Figure 6 P. falciparum strain NF54 growth-inhibition assay. […] Proliferation was measured by luminescence after a complete life-cycle and normalized to DMSO (100%) and chloroquine (100 nM, 0%). (B) Structural differences between synthetic ligands and compound IC50s (μM).
Substrate and Extracellular NanoLuc® Inhibitor (Promega, cat. N2160) were diluted at 1:166 and 1:500, respectively, in Opti -MEM I Reduced Serum Media. 25 µL of this solution was added to each well and plate was read immediately using an EnVision Multimode Plate Reader (PerkinElmer). The BRET ratio was calculated using the following formula:
BRET ratio = acceptorsample – acceptorno tracer control donorsample donorno tracer control
NanoBRET Target Engagement Assay (384-well)
HEK293T cells stably expressing either nLuc-FKBP12 or nLuc-FKBP35 were plated at 0.2×10^6 cells/mL in white, clear -bottom 384-well plates (Sigma Aldrich) in Opti -MEM I Reduced Serum Media (ThermoFisher Scientific) using a Mutidrop Combi Reagent Dispenser (ThermoFisher Scientific). Cells were incubated overnight at 37 °C, 5% CO 2. Using a Tecan D300e, the Rap-Gly-BDP tracer was added to cells to 1 µM. Plates were shaken at 700 RPM on an orbital plate shaker and incubated at 37 °C, 5% CO 2 for 10 minutes. Test compounds were added at the indicated concentrations using a Tecan D300e. Plates were shaken at 700 RPM on an orbital plate shaker and incubated at 37 °C, 5% CO 2 for 2 hours. NanoBRET Nano -Glo Substrate and Extracellular NanoLuc® Inhibitor (Promega, cat. N2160) were diluted at 1:166 and 1:500, respectively, in Opti-MEM I Reduced Serum Media. 10 µL of this solution was added to each well and plate was read immediately using an EnVision Multimode Plate Reader (PerkinElmer). The BRET ratio was calculated using the above formula.
Parasite Culture and Inhibition
NF54 P. falciparum parasites constitutively expressing Renilla luciferase (RLuc) and Blasticidin-S deaminase under the PfHsp86 5’ and PfHRP2 3‘ regulatory sequences integrated in the cg6 chromosomal locus 4 were maintained continuous ly in media consisting of human erythrocytes at 2% haematocrit (O+) resuspended in RPMI 1640 (Gibco® 31800022) supplemented with 5% Albumax (Gibco® 11021045; complete medium) and 2.5 µg/mL of Blasticidin (RPI Corp B12150-0.1) in a gas mixture consisting of 5% CO2, 1% O2, and 94% N2 at 37 °C (Trager and Jensen 2005).
Parasitemia was determined every 48 h through microscopic examination of thin blood smears fixed in methanol, stained with 10% Giemsa solution, and sub-cultured to 0.5-1% parasitaemia.
Compound susceptibility assays
In 96-well round-bottom plates, sorbitol -synchronized cultures of ring-stage NF54 P. falciparum parasites were established in triplicate and treated with varying concentrations of the inhibitors (25-0.0038 μM) serially diluted in complete medium. Parasite proliferation rates were analyzed after 72 h using the Renilla-Glo Luciferase Assay, and luminescence was measured using the GloMax® Discover Microplate Reader. EC 50 values were obtained from corrected dose-response curves using GraphPad Prism (version 5; GraphPad Software). Data represent the mean % luminescence relative to 5% DMSO-treated (vehicle, 100% growth) and 100 nM chloroquine-treated (no growth) controls.
In black, clear-bottom 96-well plates (No. 3904 Corning Life Sciences), HEK293T cells were plated at 2x10^5 cells/mL in DMEM high glucose, pyruvate media (ThermoFisher Scientific, cat. 11995073) supplemented with 10% FBS and 1% pen -strep (100 μL final volume). Cells were incubated overnight at 37°C, 5% CO2. Using a Tecan D300e digital dispenser, cells were dosed in triplicate […]
concentration, 100 mM stock in DMSO) and Carfilzomib (10 µM to 4.6 nM final concentration, 10 mM stock in DMSO) normalizing DMSO to 0.25%. Cells were then incubated at 37 °C, 5% CO2 for 72 hours. Following incubation, cells were treated with 70 µL CellTiter-Glo® Luminescent Cell […]

[7] = read-out: FBD35 IC50, fluorescence polarization, competitive inhibition model, * incomplete displacement of fluorescent probe
[8] = differential scanning calorimetry, compound 40 µM
[9] = fluorescence polarization, competitive inhibition model, read-out: FKBP12 IC50

T1 sequence (Q8I4V8 5-128): as above

SMILES	IC50 [1] [nM]	ΔTm at 40 µM (FKBP12 [2]) [°C]	ΔTm at 40 µM [4] [°C]	IC50 (FKBP12 [5]) [nM]	solubility (PBS solubility) [µM]	IC50 (FKBP12 [5]; [9]) [nM]	other results
CCC(=O)NCC(C)(C)C(=O)C(=O)N1CCCC[C@H]1C(=O)O[C@H](CCc1ccc(OC)c(OC)c1)c1ccccc1 [2b]	92	7.7	4.3	40			IC50 [3]: 1880 nM; IC50 (nLuc-tagged FKBP12): 416 nM
C=CC(=O)Nc1ccccc1[C@@H](CCc1ccc(OC)c(OC)c1)OC(=O)[C@@H]1CCCCN1C(=O)C(=O)c1cc(OC)c(OC)c(OC)c1 [1f]		1.4			23 (≈ 15.5 µg/mL)	3270	IC50 [1, 7]: > 30000 nM; ΔTm at 40 µM [4, 8]: -1.3 °C
C=CC(=O)NCC(C)(C)C(=O)C(=O)N1CCCC[C@H]1C(=O)O[C@H](CCc1ccc(OC)c(OC)c1)c1ccccc1 [2a]	104	8.8	15.2	23			IC50 [3]: 1350 nM; IC50 (nLuc-tagged FKBP12): 501 nM; K, rate of FKBP35 consumption (FKBP35; 2250 nM inhibitor : 450 nM FKBP35, 23 °C, one phase decay fit): 0.05916 h⁻¹; K’, rate of covalent adduct formation (FKBP35; 2250 nM inhibitor : 450 nM FKBP35, exponential plateau fit): 0.04354 h⁻¹
C=CC(=O)Nc1ccccc1C(=O)C(=O)N1CCCC[C@H]1C(=O)O[C@H](CCc1ccc(OC)c(OC)c1)c1ccccc1 [2f]		0.2				> 30000	ΔTm at 40 µM [4, 8]: 0.4 °C
C=CC(=O)NCCCC(=O)N1CCCC[C@H]1C(=O)O[C@H](CCc1ccc(OC)c(OC)c1)c1ccccc1 [2e]	2640	7.9	13.8	3250			
C=CC(=O)Nc1cccc([C@@H](CCc2ccc(OC)c(OC)c2)OC(=O)[C@@H]2CCCCN2C(=O)C(=O)c2cc(OC)c(OC)c(OC)c2)c1 [1e]		4.9	1.5	326	3.1 (≈ 2.09 µg/mL)		IC50 [1, 7]: > 30000 nM
C=CC(=O)Nc1ccc([C@@H](CCc2ccc(OC)c(OC)c2)OC(=O)[C@@H]2CCCCN2C(=O)C(=O)C(C)(C)CC)cc1 [1d]	85	6	2.3	100			
C=CC(=O)Nc1cc(OC)ccc1C(=O)C(=O)N1CCCC[C@H]1C(=O)O[C@H](CCc1ccc(OC)c(OC)c1)c1ccccc1 [2g]		0.1				> 30000	ΔTm at 40 µM [4, 8]: 0 °C
CCC(C)(C)C(=O)C(=O)N1CCCC[C@H]1C(=O)O[C@H](CCc1ccc(OC)c(OC)c1)c1cccc(OCC(=O)O)c1 [SLFb, reference compound]	761	6.6	2.8		59 (≈ 34.4 µg/mL)	27	IC50 [6]: 33.7 µM; tracer displacement (in words), FKBP35 ([3]; NanoBRET, 2 h incubation): markedly reduced probe displacement; tracer displacement (in words), FKBP12 (nLuc-tagged FKBP12; NanoBRET, 2 h incubation): markedly reduced probe displacement
CCC(C)(C)C(=O)C(=O)N1CCCC[C@H]1C(=O)O[C@H](CCc1ccc(OC)c(OC)c1)c1cccc(N)c1 [SLF, reference compound]	177	0.4	2.9				
C=CC(=O)OCC(C)(C)C(=O)C(=O)N1CCCC[C@H]1C(=O)O[C@H](CCc1ccc(OC)c(OC)c1)c1cccc(OCC(=O)O)c1 [2h]	137	6.2	16.3	38	70 (≈ 44.8 µg/mL)		

Source: publication PMC7667655, “Targeted Covalent Inhibition of Plasmodium FK506 Binding Protein 35” (ACS Medicinal Chemistry Letters, 2020)
